Reference: patent US20200121801A1, “DRUG DELIVERY CONJUGATES CONTAINING UNNATURAL AMINO ACIDS AND METHODS FOR USING” (priority 2012, published 2020)
“Also recorded” adds a separate entry of the source. Read-outs that look alike come from different tables or passages of the source.

Experiments:
KB tumors = assay: Inhibition of tumor growth, s.c. KB tumors in nu/nu mice; type: in vivo; parameters: key to In vivo activity (e): CR = complete response, where tumor volume, as defined herein, during the observation period was zero for all test animals in the group; details: for In vivo activity (e): subcutaneous KB tumor in nu/nu mice
Procedure: METHOD. Inhibition of Tumor Growth in Mice. […] For tumor cell inoculation, 1×10^6 M109 cells (a syngeneic lung carcinoma) in Balb/c strain, or 1×10^6 KB cells in nu/nu strain, in 100 μL are injected in the subcutis of the dorsal medial area (right axilla).
METHOD. Toxicity as Measured by Weight Loss. The percentage weight change of the test animals is determined on selected days post-tumor inoculation (PTI), and during dosing. The results are graphed.

KB cells (FR+) = type: cell-based, Human; details: for In vitro specificity (fold) (d): IC50 competed group vs non-competed group
Procedure: METHOD. Inhibition of Cellular DNA Synthesis. The compounds described herein are evaluated using an in vitro cytotoxicity assay that predicts the ability of the drug to inhibit the growth of folate receptor-positive cells, such as KB cells, RAW264.7 macrophages, and the like. It is to be understood that the choice of cell type can made on the basis of the susceptibility of those selected cells to the drug that forms the conjugate. The test compounds are comprised of folate linked to a respective chemotherapeutic drug, as prepared according to the processes described herein. The test cells are exposed to varying concentrations of folate-drug conjugate, and also in the absence or presence of at least a 100-fold excess of folic acid to assess activity as being specific to folate receptor mediation.
EXAMPLE. Conjugates of cytotoxic drugs described herein are active against KB cells. The activity is mediated by the folate receptor as indicated by competition experiments using co-administered folic acid. KB cells are exposed for up to 7 h at 37° C. to the indicated concentrations of folate-drug conjugate in the absence or presence of at least a 100-fold excess of folic acid. The cells are then rinsed once with fresh culture medium and incubated in fresh culture medium for 72 hours at 37° C. Cell viability was assessed using a ^3H-thymidine incorporation assay.
METHOD. In vitro activity against various cancer cell lines. IC50 values are generated for various cell lines. Cells are heavily seeded in 24-well Falcon plates and allowed to form nearly confluent monolayers overnight. Thirty minutes prior to the addition of the test compound, spent medium is aspirated from all wells and replaced with fresh folate-deficient RPMI medium (FFRPMI). A subset of wells are designated to receive media containing 100 μM folic acid. The cells in the designated wells are used to determine the targeting specificity. Without being bound by theory it is believed herein that the cytotoxic activity produced by test compounds in the presence of excess folic acid, i.e. where there is competition for FR binding, corresponds to the portion of the total activity that is unrelated to FR-specific delivery. Following one rinse with 1 mL of fresh FFRPMI containing 10% heat-inactivated fetal calf serum, each well receives 1 mL of medium containing increasing concentrations of test compound (4 wells per sample) in the presence or absence of 100 μM free folic acid as indicated. Treated cells are pulsed for 2 h at 37° C., rinsed 4 times with 0.5 mL of media, and then chased in 1 mL of fresh medium up to 70 h. Spent medium is aspirated from all wells and replaced with fresh medium containing 5 μCi/mL ^3H-thymidine. Following a further 2 h 37° C. incubation, cells are washed 3 times with 0.5 mL of PBS and then treated with 0.5 mL of ice-cold 5% trichloroacetic acid per well. After 15 min, the trichloroacetic acid is aspirated and the cell material solubilized by the addition of 0.5 mL of 0.25 N sodium hydroxide for 15 min. A 450 μL aliquot of each solubilized sample is transferred to a scintillation vial containing 3 mL of Ecolume scintillation cocktail and then counted in a liquid scintillation counter. Final results are expressed as the percentage of ^3H-thymidine incorporation relative to untreated controls.

[1] = Plasma stability / free drug release after s.c. dose (EC1496 vs EC0746); type: in vivo, rats
Procedure: METHOD. Human serum stability. Compounds described herein are tested in human serum for stability using conventional protocols and methods. Briefly, test compound is administered to the test animal, such as by subcutaneous injection. The plasma concentration of the conjugate, and optionally one or more metabolites, is monitored over time. The results are graphed to determine Cmax, Tmax, half-life, and AUC for the test compound and metabolites.
EXAMPLE. […] EC1495 and EC0746 (comparator compound) are each administered at 500 nmol/kg by subcutaneous injection. The plasma concentration of the conjugate and the metabolites (aminopterin and aminopterin hydrazide) are monitored over time. […] As also shown in the following table, free drug is released as the parent aminopterin and the hydrazide derivative (EC0470).

[2] = target: T1, folate receptors (FRs) on KB cells (Homo sapiens, UniProt P15328); assay: Relative affinity assay (3H-folic acid competition) on KB cells; type: binding; details: for Relative Affinity (a) compared to folic acid: folic acid = 1, in 10% serum/FDRPMI
T1 construct: FR-positive KB cells are heavily seeded into 24-well cell culture plates; endogenous in cells; host or cells: KB cells
Procedure: METHOD. Relative Affinity Assay. The affinity for folate receptors (FRs) relative to folate is determined according to a previously described method (Westerhof, G. R., J. H. Schornagel, et al. (1995) Mol. Pharm. 48: 459-471) with slight modification. Briefly, FR-positive KB cells are heavily seeded into 24-well cell culture plates and allowed to adhere to the plastic for 18 h. Spent incubation media is replaced in designated wells with folate-free RPMI (FFRPMI) supplemented with 100 nM ^3H-folic acid in the absence and presence of increasing concentrations of test article or folic acid. Cells are incubated for 60 min at 37° C. and then rinsed 3 times with PBS, pH 7.4. Five hundred microliters of 1% SDS in PBS, pH 7.4, is added per well. Cell lysates are then collected and added to individual vials containing 5 mL of scintillation cocktail, and then counted for radioactivity. Negative control tubes contain only the ^3H-folic acid in FFRPMI (no competitor). Positive control tubes contain a final concentration of 1 mM folic acid, and CPMs measured in these samples (representing non-specific binding of label) are subtracted from all samples.

[3] = Plasma clearance after s.c. administration; type: in vivo, Lewis rats; details: EC1669 500 nmol/kg s.c.
Procedure: METHOD. Plasma clearance. In vivo studies include a minimum of 3 test animals, such as rats, per time point. Illustratively, female Lewis rats with jugular vein catheters (Harlan, regular rodent diet) are given a single subcutaneous injection of test compound, such as EC1669 at 500 nmol/kg. Whole blood samples (300 μL) are collected at the following time points: 1 min, 10 min, 30 min, 1 h, 2 h, 3 h, 4 h, 8 h, and 12 h after injection. The blood samples are placed into anti-coagulant tubes containing 1.7 mg/mL of K3-EDTA and 0.35 mg/mL of N-maleoyl-beta-alanine (0.35 mg/mL) in a 0.15% acetic acid solution. Plasma samples are obtained by centrifugation for 3 min at ˜2,000 g and stored at −80° C. The amounts of test compound in the plasma and any metabolites, such as EC1669 and its two active metabolites aminopterin (AMT) and AMT hydrazide (EC0470), respectively, are quantified by LC-MS/MS.

[4] = IC50 for test compound when competed with excess folic acid, read-out: 50% competition (nM) (c)
[5] = as determined by thymidine incorporation, read-out: In vitro IC50 (nM) (b)

T1 sequence (P15328 25-234): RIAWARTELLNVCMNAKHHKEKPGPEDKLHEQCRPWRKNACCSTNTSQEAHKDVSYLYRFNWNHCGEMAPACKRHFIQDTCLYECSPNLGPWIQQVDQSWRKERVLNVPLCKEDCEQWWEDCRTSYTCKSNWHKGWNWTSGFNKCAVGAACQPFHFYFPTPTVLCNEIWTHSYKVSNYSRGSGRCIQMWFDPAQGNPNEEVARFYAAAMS

## N=c1[nH]c(N)nc2ncc(CNc3ccc(C(=O)N[C@@H](CCC(=O)NNC(=O)OCCSSC[C@H](NC(=O)[C@H](CCC(=O)NC[C@H](O)[C@@H](O)[C@H](O)[C@H](O)CO)NC(=O)[C@H](CCC(=O)O)NC(=O)[C@H](CCC(=O)NC[C@H](O)[C@@H](O)[C@H](O)[C@H](O)CO)NC(=O)[C@H](CCC(=O)O)NC(=O)[C@H](CCC(=O)NC[C@H](O)[C@@H](O)[C@H](O)[C@H](O)CO)NC(=O)CC[C@H](NC(=O)c4ccc(NCc5cnc6nc(N)[nH]c(=O)c6n5)cc4)C(=O)O)C(=O)O)C(=O)O)cc3)nc12 [EC0531, reference compound]
KB tumors
  In vivo activity (e): CR
KB cells (FR+)
  In vitro specificity (fold) (d): 237 fold

## CCCC(=O)OCN(C(=O)[C@@H](NC(=O)[C@H]1CCCCN1C)C(C)CC)[C@H](C[C@H](OC(C)=O)c1nc(C(=O)N[C@H](Cc2ccc(O)cc2)C[C@H](C)C(=O)NNC(=O)OCCSSC[C@H](NC(=O)[C@H](CCC(=O)NC[C@H](O)[C@@H](O)[C@H](O)[C@H](O)CO)NC(=O)[C@H](CCC(=O)O)NC(=O)[C@H](CCC(=O)NC[C@H](O)[C@@H](O)[C@H](O)[C@H](O)CO)NC(=O)[C@H](CCC(=O)O)NC(=O)[C@H](CCC(=O)NC[C@H](O)[C@@H](O)[C@H](O)[C@H](O)CO)NC(=O)CC[C@H](NC(=O)c2ccc(NCc3cnc4nc(N)[nH]c(=O)c4n3)cc2)C(=O)O)C(=O)O)cs1)C(C)C (stereo partly drawn) [EC0746, reference compound]
[1]; 500 nmol/kg s.c., plasma
  Free drug released (%): AMT: 11.0%
  Free drug released (%): AMT-hydrazide (EC0470): 7.4%
  Free drug released (%): Total: 18.4%
[1]; after a subcutaneous dose in rats
  drug released relative to EC1496: more than 2 fold

## CCCC(=O)OCN(C(=O)[C@@H](NC(=O)[C@H]1CCCCN1C)C(C)CC)[C@H](C[C@@H](OC(C)=O)c1nc(C(=O)N[C@@H](Cc2ccc(O)cc2)C[C@H](C)C(=O)NNC(=O)OCCSSC[C@@H](NC(=O)[C@@H](CC(=O)O)NC(=O)[C@@H](CC(=O)O)NC(=O)[C@@H](CCCNC(=N)N)NC(=O)[C@@H](CC(=O)O)NC(=O)CC[C@@H](NC(=O)c2ccc(NCc3cnc4nc(N)[nH]c(=O)c4n3)cc2)C(=O)O)C(=O)O)cs1)C(C)C (stereo partly drawn) [EC1299]
KB tumors
  In vivo activity (e): CR
[2]
  Relative Affinity (a) compared to folic acid: 0.29
KB cells (FR+)
  In vitro specificity (fold) (d): 778 fold
KB cells (FR+); [4]
  IC50: 700 nM
KB cells (FR+); [5]
  IC50: 0.9 nM

## CCCC(=O)OCN(C(=O)[C@@H](NC(=O)[C@H]1CCCCN1C)C(C)CC)[C@H](C[C@@H](OC(C)=O)c1nc(C(=O)N[C@@H](Cc2ccc(O)cc2)C[C@H](C)C(=O)NNC(=O)OCCSSC(C)(C)[C@@H](NC(=O)[C@@H](CC(=O)O)NC(=O)[C@@H](CC(=O)O)NC(=O)[C@@H](CCCNC(=N)N)NC(=O)[C@@H](CC(=O)O)NC(=O)CC[C@@H](NC(=O)c2ccc(NCc3cnc4nc(N)[nH]c(=O)c4n3)cc2)C(=O)O)C(=O)O)cs1)C(C)C (stereo partly drawn) [EC1393]
[2]
  Relative Affinity (a) compared to folic acid: 0.25
KB cells (FR+)
  In vitro specificity (fold) (d): 300 fold

## CCCC(=O)OCN(C(=O)[C@@H](NC(=O)[C@H]1CCCCN1C)C(C)CC)[C@H](C[C@@H](OC(C)=O)c1nc(C(=O)N[C@@H](Cc2ccc(O)cc2)C[C@H](C)C(=O)NNC(=O)OCCSSC[C@@H](NC(=O)[C@H](CC(=O)O)NC(=O)[C@H](CC(=O)O)NC(=O)[C@H](CCCNC(=N)N)NC(=O)[C@H](CC(=O)O)NC(=O)CC[C@H](NC(=O)c2ccc(NCc3cnc4nc(N)[nH]c(=O)c4n3)cc2)C(=O)O)C(=O)O)cs1)C(C)C (stereo partly drawn) [EC1548]
KB tumors
  In vivo activity (e): CR
[2]
  Relative Affinity (a) compared to folic acid: 0.23
KB cells (FR+)
  In vitro specificity (fold) (d): 78 fold
KB cells (FR+); [4]
  IC50: 350 nM
KB cells (FR+); [5]
  IC50: 4.4 nM

## CCCCOCN(C(=O)[C@@H](NC(=O)[C@H]1CCCCN1C)C(C)CC)[C@H](C[C@@H](OC(C)=O)c1nc(C(=O)N[C@@H](Cc2ccc(O)cc2)C[C@H](C)C(=O)NNC(=O)OCCSSC[C@@H](NC(=O)[C@H](CCC(=O)NC[C@H](O)[C@@H](O)[C@H](O)[C@H](O)CO)NC(=O)[C@@H](CCC(=O)O)NC(=O)[C@H](CCC(=O)NC[C@H](O)[C@@H](O)[C@H](O)[C@H](O)CO)NC(=O)[C@@H](CCC(=O)O)NC(=O)[C@H](CCC(=O)NC[C@H](O)[C@@H](O)[C@H](O)[C@H](O)CO)NC(=O)CC[C@@H](NC(=O)c2ccc(NCc3cnc4nc(N)[nH]c(=O)c4n3)cc2)C(=O)O)C(=O)O)cs1)C(C)C (stereo partly drawn) [EC1663]
KB tumors; 0.5 μmol/kg i.v. TIW, 2 weeks
  partial responses (test animals): 4/4
  whole animal toxicity: did not exhibit significant host animal toxicity; also recorded: whole animal toxicity was not observed

## CN(Cc1cnc2nc(N)nc(N)c2n1)c1ccc(C(=O)N[C@@H](CCC(=O)O)C(=O)O)cc1 [methotrexate, reference compound]
[2]; in comparison to EC1669
  binding to the cell surface FRs: poor binding

## aminopterin hydrazide [EC0470, reference compound]
[3]
  AUC of EC1669-derived metabolite: 3.9 nmol·min/mL
  elimination half-life of EC1669-derived metabolite: 112 min
[3]; plasma, read-out: Cmax of EC1669-derived metabolite
  Cmax: 21 nM
